Reference: US8859608B2, “Spiro amino compounds suitable for the treatment of inter alia sleep disorders and drug addiction” (Rottapharm Biotech S.R.L., priority 2009, dated 2014)
One block for each compound: values may come before it.

How the values were obtained:
[1] = target: T1, human OX1 receptor (Homo sapiens, UniProt O43613); assay: FLIPR measurement of intracellular calcium, antagonistic activity at OX1; conditions: for selectivity against the OX1 receptor: OX1 versus OX2, from the pKb table; for Kb: pKb OX1, CHO cells with human recombinant OX1, activated with orexin-A 3 nM, 1 nM-1 μM range, modified Cheng Prusoff
T1 sequence (O43613 1-425): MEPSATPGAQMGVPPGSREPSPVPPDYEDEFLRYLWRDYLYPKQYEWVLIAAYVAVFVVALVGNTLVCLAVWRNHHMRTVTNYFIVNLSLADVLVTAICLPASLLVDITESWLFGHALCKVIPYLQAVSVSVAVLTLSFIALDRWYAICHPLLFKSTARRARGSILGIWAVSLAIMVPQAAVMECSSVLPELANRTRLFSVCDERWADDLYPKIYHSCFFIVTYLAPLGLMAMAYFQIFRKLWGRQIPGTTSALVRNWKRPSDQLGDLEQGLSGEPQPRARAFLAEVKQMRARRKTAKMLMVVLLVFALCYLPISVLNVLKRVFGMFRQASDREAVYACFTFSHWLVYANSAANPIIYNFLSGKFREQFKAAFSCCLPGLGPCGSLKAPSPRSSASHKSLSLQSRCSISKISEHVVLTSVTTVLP
Method: (§1) Thus the plate was loaded with the calcium dye (Fluo-4NW/probenecid in HBSS, Hepes 20 mM, pH 7,4; Invitrogen) at 37° C. for 60 min. Afterward the temperature was equilibrated at 22° C. for 15 min and the [Ca2+]i measured directly on the plate by using a fluorescent plate reader (CeliLux Perkin Elmer).
(§2) After 5 min CHO cells were activated with orexin-A, 3 nM while HEK-293 cells were activated with orexin-B, 10 nM.
(§3) The antagonistic activity has been expressed as pKb (co-logarithm of the apparent dissociation constant calculated by using the modified Cheng Prusoff equation).

[2] = target: T2, human OX2 receptor (Homo sapiens, UniProt O43614); assay: FLIPR measurement of intracellular calcium, antagonistic activity at OX2
T2 sequence (O43614 1-444): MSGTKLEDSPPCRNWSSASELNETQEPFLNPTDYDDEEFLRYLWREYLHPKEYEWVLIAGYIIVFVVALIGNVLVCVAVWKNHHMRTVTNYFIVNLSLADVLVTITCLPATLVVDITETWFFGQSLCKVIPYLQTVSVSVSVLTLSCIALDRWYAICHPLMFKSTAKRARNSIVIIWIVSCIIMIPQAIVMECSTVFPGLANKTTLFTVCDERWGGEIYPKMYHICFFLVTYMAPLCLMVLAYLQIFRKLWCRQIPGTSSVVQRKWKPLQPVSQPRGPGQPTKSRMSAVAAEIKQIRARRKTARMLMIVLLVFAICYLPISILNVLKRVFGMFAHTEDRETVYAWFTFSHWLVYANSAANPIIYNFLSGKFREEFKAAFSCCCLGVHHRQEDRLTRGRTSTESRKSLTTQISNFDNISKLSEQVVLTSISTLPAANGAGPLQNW
Method: as §1, §2, §3

- Kb [1]: 15.8 nM
Structure (SMILES): O=C(c1c(F)cccc1-n1nccn1)N1CCC2(CC2)C[C@H]1CNc1ccc(Cl)cn1 [Compound 31, (S)-(5-(((5-chloropyridin-2-yl)amino)methyl)-6-azaspiro[2.5]octan-6-yl)(2-fluoro-6-(2H-1,2,3-triazol-2-yl)phenyl)methanone]

- Kb [1]: 63.1 nM
Structure (SMILES): O=C(c1cc(F)ccc1-c1ccccn1)N1CCC2(CC2)C[C@H]1CNc1ccc(Cl)cn1 [Compound 32, (S)-(5-(((5-chloropyridin-2-yl)amino)methyl)-6-azaspiro[2.5]octan-6-yl)(5-fluoro-2-(pyridin-2-yl)phenyl)methanone]

- Kb [1]: 1.58 nM
Structure (SMILES): Cc1ccc(-c2ccccn2)c(C(=O)N2CCC3(CC3)C[C@H]2CNc2ccc(Cl)cn2)c1 [Compound 33, (S)-(5-(((5-chloropyridin-2-yl)amino)methyl)-6-azaspiro[2.5]octan-6-yl)(5-methyl-2-(pyridin-2-yl)phenyl)methanone]

- Kb [1]: 20 nM
Structure (SMILES): O=C(c1c(F)cccc1-c1ccccn1)N1CCC2(CC2)C[C@H]1CNc1ccc(Cl)cn1 [Compound 34, (S)-(5-(((5-chloropyridin-2-yl)amino)methyl)-6-azaspiro[2.5]octan-6-yl)(2-fluoro-6-(pyridin-2-yl)phenyl)methanone]

- Kb [2]: > 10000 nM
Structure (SMILES): Cc1cc(C)nc(NC[C@@H]2CC3(CCN2C(=O)c2cc(Cl)ccc2Cl)CC3)n1 [Compound 37, (S)-(2,5-dichlorophenyl)(5-(((4,6-dimethylpyrimidin-2-yl)amino)methyl)-6-azaspiro[2.5]octan-6-yl)methanone]

- Kb [1]: 20 nM
Structure (SMILES): O=C(c1ccccc1-c1ccccc1)N1CCC2(CC2)C[C@H]1CNc1ccc(Cl)cn1 [Compound 38, (S)-[1,1′-biphenyl]-2-yl(5-(((5-chloropyridin-2-yl)amino)methyl)-6-azaspiro[2.5]octan-6-yl)methanone]

- Kb [1]: 31.6 nM
Structure (SMILES): O=C(c1ccccc1-c1ncccn1)N1CCC2(CC2)C[C@H]1CNc1ccc(Cl)cn1 [Compound 40, (S)-(5-(((5-chloropyridin-2-yl)amino)methyl)-6-azaspiro[2.5]octan-6-yl)(2-(pyrimidin-2-yl)phenyl)methanone]

- Kb [1]: 63.1 nM
Structure (SMILES): Cc1ccc(-c2ncccn2)c(C(=O)N2CCC3(CC3)C[C@H]2CNc2cccc(Cl)n2)c1 [Compound 41, (S)-(5-(((6-chloropyridin-2-yl)amino)methyl)-6-azaspiro[2.5]octan-6-yl)(5-methyl-2-(pyrimidin-2-yl)phenyl)methanone]

- Kb [1]: 25.1 nM
Structure (SMILES): Cc1ccc(-c2cnccn2)c(C(=O)N2CCC3(CC3)C[C@H]2CNc2cccc(Cl)n2)c1 [Compound 42, (S)-(5-(((6-chloropyridin-2-yl)amino)methyl)-6-azaspiro[2.5]octan-6-yl)(5-methyl-2-(pyrazin-2-yl)phenyl)methanone]

- Kb [1]: 10 nM
Structure (SMILES): Cc1ccc(-c2cnccn2)c(C(=O)N2CCC3(CC3)C[C@H]2CNc2cccc(C(F)(F)F)n2)c1 [Compound 43, (S)-(5-methyl-2-(pyrazin-2-yl)phenyl)(5-(((6-(trifluoromethyl)pyridin-2-yl)amino)methyl)-6-azaspiro[2.5]octan-6-yl)methanone]

- Kb [1]: 15.8 nM
Structure (SMILES): O=C(c1cc(F)ccc1-c1ncccn1)N1CCC2(CC2)C[C@H]1CNc1ccc(Cl)cn1 [Compound 44, (S)-(5-(((5-chloropyridin-2-yl)amino)methyl)-6-azaspiro[2.5]octan-6-yl)(5-fluoro-2-(pyrimidin-2-yl)phenyl)methanone]

- Kb [1]: 10 nM
Structure (SMILES): O=C(c1c(F)cccc1-c1ncccn1)N1CCC2(CC2)C[C@H]1CNc1ccc(Cl)cn1 [Compound 45, (S)-(5-(((5-chloropyridin-2-yl)amino)methyl)-6-azaspiro[2.5]octan-6-yl)(2-fluoro-6-(pyrimidin-2-yl)phenyl)methanone]

The next lines start with the compound.

Structure (SMILES): Cc1cccc(NCC2CC3(CCN2C(=O)c2nc(C)sc2-c2ccccc2)CC3)n1 (racemic) [Compound 1, (±) (2-methyl-5-phenylthiazol-4-yl)(5-((6-methylpyridin-2-ylamino)methyl)-6-azaspiro[2.5]octan-6-yl)methanone]
- selectivity against the OX1 receptor [1]: same behaviour
- Kb [2]: > 10000 nM

Structure (SMILES): Cc1nc(C(=O)N2CCC3(CC3)CC2CNc2ccc(C(F)(F)F)cn2)c(-c2ccccc2)s1 (racemic) [Compound 7, (±) (2-methyl-5-phenylthiazol-4-yl)(5-((5-(trifluoromethyl)pyridin-2-ylamino)methyl)-6-azaspiro[2.5]octan-6-yl)methanone]
- selectivity against the OX1 receptor [1]: same behaviour
- Kb [1]: 25.1 nM
- Kb [2]: > 10000 nM

Structure (SMILES): O=C(c1ccccc1OCC1CC1)N1CCC2(CC2)CC1CNc1ccc(Cl)cn1 (racemic) [Compound 9, (±) (5-((5-chloropyridin-2-ylamino)methyl)-6-azaspiro[2.5]octan-6-yl)(2-(cyclopropylmethoxy)phenyl)methanone]
- Kb [1]: 100 nM
- Kb [2]: > 10000 nM

Structure (SMILES): COC(=O)c1cc(Cl)ccc1NCC1CC2(CCN1C(=O)c1nc(C)sc1-c1ccc(F)cc1)CC2 (racemic) [Compound 15, (±)methyl 5-chloro-2-((6-(5-(4-fluorophenyl)-2-methylthiazole-4-carbonyl)-6-azaspiro[2.5]octan-5-yl)methylamino)benzoate]
- Kb [1]: 126 nM
- Kb [2]: > 10000 nM

Structure (SMILES): Cc1nc(C(=O)N2CCC3(CC3)CC2CNc2ccc(Cl)cn2)c(-c2ccccc2)s1 (single isomer, unassigned) [Compound 5, (5-((5-chloropyridin-2-ylamino)methyl)-6-azaspiro[2.5]octan-6-yl)(2-methyl-5-phenylthiazol-4-yl)methanone]
- Kb [1]: 12.6 nM
- Kb [2]: > 1000 nM

Structure (SMILES): Cc1nc(C(=O)N2CCC3(CC3)CC2CNc2ccc(C(F)(F)F)cn2)c(-c2ccccc2)s1 (single isomer, unassigned) [Compound 8, (2-methyl-5-phenylthiazol-4-yl)(5-((5-(trifluoromethyl)pyridin-2-ylamino)methyl)-6-azaspiro[2.5]octan-6-yl)methanone]
- selectivity against the OX1 receptor [1]: same behaviour
- Kb [1]: 20 nM
- Kb [2]: > 10000 nM

Structure (SMILES): Cc1nc(C(=O)N2CCC3(CC3)C[C@H]2CNc2cccc(Cl)n2)c(-c2ccccc2)s1 [Compound 17, (S)-(5-(((6-chloropyridin-2-yl)amino)methyl)-6-azaspiro[2.5]octan-6-yl)(2-methyl-5-phenylthiazol-4-yl)methanone]
- Kb [1]: 31.6 nM
- Kb [2]: > 10000 nM

Structure (SMILES): Cc1nc(C(=O)N2CCC3(CC3)C[C@H]2CNc2nc(F)cc(F)n2)c(-c2ccccc2)s1 [Compound 24, (S)-(5-(((4,6-difluoropyrimidin-2-yl)amino)methyl)-6-azaspiro[2.5]octan-6-yl)(2-methyl-5-phenylthiazol-4-yl)methanone]
- Kb [1]: 100 nM

Structure (SMILES): Cc1nc(C(=O)N2CCC3(CC3)C[C@H]2CNc2cccc(F)n2)c(-c2ccccc2)s1 [Compound 25, (S)-(5-(((6-fluoropyridin-2-yl)amino)methyl)-6-azaspiro[2.5]octan-6-yl)(2-methyl-5-phenylthiazol-4-yl)methanone]
- Kb [1]: 39.8 nM

Structure (SMILES): Cc1ccc(-n2nccn2)c(C(=O)N2CCC3(CC3)C[C@H]2CNc2ccc(C(F)(F)F)cn2)c1 [Compound 26, (S)-(5-methyl-2-(2H-1,2,3-triazol-2-yl)phenyl)(5-(((5-(trifluoromethyl)pyridin-2-yl)amino)methyl)-6-azaspiro[2.5]octan-6-yl)methanone]
- Kb [1]: 25.1 nM

Structure (SMILES): Cc1ccc(-c2ncccn2)c(C(=O)N2CCC3(CC3)C[C@H]2CNc2ccc(C(F)(F)F)cn2)c1 [Compound 27, (S)-(5-methyl-2-(pyrimidin-2-yl)phenyl)(5-(((5-(trifluoromethyl)pyridin-2-yl)amino)methyl)-6-azaspiro[2.5]octan-6-yl)methanone]
- Kb [1]: 12.6 nM

Structure (SMILES): O=C(c1ccccc1-n1nccn1)N1CCC2(CC2)C[C@H]1CNc1ccc(Cl)cn1 [Compound 28, (S)-(2-(2H-1,2,3-triazol-2-yl)phenyl)(5-(((5-chloropyridin-2-yl)amino)methyl)-6-azaspiro[2.5]octan-6-yl)methanone]
- Kb [1]: 25.1 nM

Structure (SMILES): O=C(c1cc(F)ccc1-n1nccn1)N1CCC2(CC2)C[C@H]1CNc1ccc(Cl)cn1 [Compound 29, (S)-(5-(((5-chloropyridin-2-yl)amino)methyl)-6-azaspiro[2.5]octan-6-yl)(5-fluoro-2-(2H-1,2,3-triazol-2-yl)phenyl)methanone]
- Kb [1]: 31.6 nM

Structure (SMILES): O=C(c1ccccc1-c1cnccn1)N1CCC2(CC2)C[C@H]1CNc1ccc(Cl)cn1 [Compound 30, (S)-(5-(((5-chloropyridin-2-yl)amino)methyl)-6-azaspiro[2.5]octan-6-yl)(2-(pyrazin-2-yl)phenyl)methanone]
- Kb [1]: 63.1 nM
